One data set in a line: antidepressant activity. The following applies: in words.
Data set [1] can be described thus: LD50 in mice on oral administration (toxicity). The following applies: mouse, in vivo.
A short description of a further data set: anticholinergic activity. To be noted: in words.
The nature of data set [2]: anticonvulsant properties (no test described). The following applies: in words.
A short description of the next data set: diuretic activity. To be noted: in words.
The next data set in a line: anti-Parkinson activity. The following applies: in words.
Another data set is described as follows: antitussive activity. The following applies: in words.

Here are results for 6 molecules from patent US4003915A, “Tricyclic imines” (Hoffmann-La Roche Inc., priority 1970, dated 1977).

A word on the LD50: it is the dose expected to kill half of the subjects tested. Read a low LD50 as a more toxic substance.

For the molecule `CN(C)CCN=C1c2ccccc2CCc2c(Cl)cccc21` [1-chloro-N-(2-dimethylamino-ethyl)-10,11-dihydro-5H-dibenzo[a,d]cyclohepten-5-imine], the antidepressant activity entry in “antidepressant activity” was “acts principally as an antidepressant”. In addition, the LD50 in data set [1] was around 750 mg/kg. Moreover, the anticholinergic activity entry in the data set “anticholinergic activity” was “very weak”.

Consider `CN(C)CCN=C1c2ccccc2CCc2c(Br)cccc21` [1-bromo-N-(2-dimethylamino-ethyl)-10,11-dihydro-5H-dibenzo[a,d]cyclohepten-5-imine], for which, in data set [1], the 50% lethal dose (LD50) is around 750 mg/kg. Besides, the anticonvulsant properties entry in data set [2] is “strong”.

In the case of `CCN(CC)CCN=C1c2ccccc2CCc2c(Cl)cccc21` [1-chloro-N-(2-diethylamino-ethyl)-10,11-dihydro-5H-dibenzo[a,d]cyclohepten-5-imine], the diuretic activity result in the data set “diuretic activity” is “strong”.

As for `CN(C)CCN=C1c2ccccc2CCc2ccccc21` [N-(2-dimethylamino-ethyl)-10,11-dihydro-5H-dibenzo[a,d]cyclohepten-5-imine], the “central and peripheral anticholinergic activity” value in “anticholinergic activity” (central and peripheral) is on record as “strong”. The “activity against Parkinsonism” value in the data set “anti-Parkinson activity” is on record as “very active”.

For `CN(C)CCN=C1c2ccccc2CCc2ccc(Cl)cc21` [3-chloro-N-(2-dimethylamino-ethyl)-10,11-dihydro5H-dibenzo[a,d]cyclohepten-5-imine], in the data set “antidepressant activity”, the antidepressant activity result is “strong”. The anticholinergic activity result in the data set “anticholinergic activity” was “strong”. Also, the “activity against Parkinsonism” value in “anti-Parkinson activity” was “very active”.

As to `CCN(CC)CCN=C1c2ccccc2CCc2ccc(Cl)cc21` [3-chloro-N-(2-diethylamino-ethyl)-10,11-dihydro-5H-dibenzo[a,d]cyclohepten-5-imine], the antitussive activity entry in the data set “antitussive activity” is given as “strong”.
